# Results from US20070190187A1, “FORMULATION FOR ENHANCED DELIVERY OF PHENETHYLAMINE” (priority 2006, published 2007).
# Experiment: co-administration of phenylethylamine with moiety/moieties that inhibit the enzyme MAO-B
# Assay type: in vivo
# Conditions: co-administered with a moiety/moieties that inhibited the effects of the enzyme MAO-B
# Source text: Therefore, the combination of phenylethylamine or derivative thereof and the MAO-B enzyme inhibitor may be formulated as a dietary supplement, other foodstuff, a pharmaceutical, a topical or transdermal compound or a vaccine. The Dietary Supplement Health and Education Act of 1994, commonly referred to as DSHEA, defines “dietary supplement” as any product (except tobacco) that contains at least one of the following: (1) a vitamin, (2) a mineral, (3) an herb or botanical, (4) an amino acid, (5) a dietary substance “for use to supplement the diet by increasing total dietary intake,” or (6) any concentrate, metabolite, constituent, extract, or combination of any of the aforementioned ingredients. Examples of dietary supplements include, but are not limited to nutritional products; sports performance products, including ergogenic sports performing products; weight loss products; and meal replacement products. Dietary supplements may exist in various forms, including, but not limited to tablets, capsules, caplets, powders, drinks including shakes, and solid food items including snack bars, etc. For purposes of the present invention, a foodstuff is defined as a substance that can be used or prepared for use as food or extracted from food.
structure (smiles),measurement,value
"NCCc1ccccc1 [phenylethylamine, Phenethylamine]","amount of phenethylamine absorbed into the bloodstream, cells and tissue",increased amount
same,amount of phenethylamine allowed to reach the brain and period of time per dose administered before it is metabolized,"a greater amount of phenethylamine or a derivative thereof, is allowed to reach the brain for a greater period of time"
